What was measured:
human EP2 receptor = biological target: T1, human EP2 receptor (Homo sapiens, UniProt P43116); assay: Binding ability to human EP receptors ([3H]PGE2 displacement), EP2; conditions: membranes expressing human EP2; [3H]PGE2 3 nM; Cheng-Prusoff; read-out: pKi (M) EP2 (converted)
T1 construct: expressed in transfected cells
Experimental: (§1) Membranes were prepared from cells stably transfected with human EP receptor cDNA. In brief, cells were cultured to confluency, scraped from culture flasks, and centrifuged (800 g, 8 minutes, 4° C.). Cells were twice washed in ice cold homogenisation buffer containing 10 mMTris-HCl, 1 mM EDTA.2Na, 250 mM sucrose, 1 mM PMSF, 0.3 mM indomethacin, pH 7.4, homogenised and re-centrifuged as before. The supernatant was stored on ice and pellets re-homogenised and re-spun. Supernatants were pooled and centrifuged at 40000 g, 10 minutes, 4° C. Resultant membrane pellets were stored at −80° C. until use. For assay, membranes expressing human EP4, EP3, EP2 or EP1 receptors were incubated in Millipore (MHVBN45) plates containing assay buffer, radiolabelled [^3H]PGE2 and 0.1 to 10 000 nM concentrations of compounds. Incubations were performed at suitable temperatures and for suitable times to allow equilibrium to be reached. Non-specific binding was determined in the presence of 10 uM PGE2. Bound and free radiolabel was separated by vacuum manifold filtration using appropriate wash buffers, and bound radiolabel was determined by scintillation counting. Constituents of each of the buffers are included in table 1 below. […] Raven Press, New York, 2nd edition.

human EP4 receptor = biological target: T2, human EP4 receptor (Homo sapiens, UniProt P35408); assay: Binding ability to human EP receptors ([3H]PGE2 displacement), EP4; conditions: membranes expressing human EP4; [3H]PGE2 1 nM; Cheng-Prusoff; read-out: pKi (M) EP4 (converted)
T2 construct: expressed in transfected cells
T2 sequence (P35408 whole entry): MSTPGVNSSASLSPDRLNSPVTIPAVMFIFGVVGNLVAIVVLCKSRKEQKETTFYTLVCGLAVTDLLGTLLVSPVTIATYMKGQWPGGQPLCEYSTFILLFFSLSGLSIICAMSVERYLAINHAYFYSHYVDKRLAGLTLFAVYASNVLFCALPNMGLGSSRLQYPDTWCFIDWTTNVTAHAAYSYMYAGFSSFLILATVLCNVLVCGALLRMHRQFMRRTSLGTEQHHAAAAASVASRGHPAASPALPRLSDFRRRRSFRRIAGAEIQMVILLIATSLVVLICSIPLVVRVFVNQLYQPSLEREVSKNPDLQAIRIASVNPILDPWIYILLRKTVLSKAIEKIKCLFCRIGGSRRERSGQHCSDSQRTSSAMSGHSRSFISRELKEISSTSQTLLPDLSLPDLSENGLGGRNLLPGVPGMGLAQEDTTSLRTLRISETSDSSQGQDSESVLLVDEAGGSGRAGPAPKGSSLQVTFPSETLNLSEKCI
Experimental: as §1

human EP3 receptor = biological target: T3, human EP3 receptor (Homo sapiens, UniProt P43115); assay: Binding ability to human EP receptors ([3H]PGE2 displacement), EP3; conditions: membranes expressing human EP3; [3H]PGE2 2.5 nM; Cheng-Prusoff; read-out: pKi (M) EP3 (converted)
T3 construct: expressed in transfected cells
T3 sequence (P43115 1-390): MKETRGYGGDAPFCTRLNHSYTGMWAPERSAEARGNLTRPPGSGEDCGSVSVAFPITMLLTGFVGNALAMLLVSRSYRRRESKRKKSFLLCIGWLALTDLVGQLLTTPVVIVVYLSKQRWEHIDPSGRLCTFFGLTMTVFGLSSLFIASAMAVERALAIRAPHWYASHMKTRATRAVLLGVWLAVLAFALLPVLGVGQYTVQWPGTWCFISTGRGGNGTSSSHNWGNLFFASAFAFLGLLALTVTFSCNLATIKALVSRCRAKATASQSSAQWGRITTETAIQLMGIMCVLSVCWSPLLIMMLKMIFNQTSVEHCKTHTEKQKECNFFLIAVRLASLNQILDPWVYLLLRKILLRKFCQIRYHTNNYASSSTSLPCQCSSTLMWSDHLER
Experimental: as §1

[1] = biological target: T4, human EP2 prostanoid receptors (Homo sapiens, UniProt P43116); assay: Agonist activity at recombinant human EP2 prostanoid receptors (cAMP in HEK-293 clones); type: cell-based; conditions: for EC50: HEK-293 stably transfected with human EP2, cAMP accumulation, read-out: pEC50 EP2 (converted); for activity (EP2 part): functional classification at EP2
T4 construct: expressed in transfected cells; host or cells: HEK-293
T4 sequence (P43116 whole entry): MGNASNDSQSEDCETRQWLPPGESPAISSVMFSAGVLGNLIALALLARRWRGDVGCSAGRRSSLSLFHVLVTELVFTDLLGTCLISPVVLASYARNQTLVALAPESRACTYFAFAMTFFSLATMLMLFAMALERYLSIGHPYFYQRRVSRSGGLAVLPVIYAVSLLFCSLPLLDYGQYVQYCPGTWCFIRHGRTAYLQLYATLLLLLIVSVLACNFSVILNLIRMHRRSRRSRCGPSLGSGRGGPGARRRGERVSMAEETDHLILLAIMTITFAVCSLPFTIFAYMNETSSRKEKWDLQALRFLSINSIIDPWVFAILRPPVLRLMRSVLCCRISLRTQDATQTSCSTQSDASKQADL
Experimental: Culture media was Minimal essential media (MEM), supplemented with 10% foetal bovine serum, 100 U/ml penicillin, […] streptomycin, 2.5 μg/ml fungizone, 2mM glutamine. Cells were cultured to confluency (3-4 days) prior to use. Culture media was removed, and confluent cells washed three times in MEM. […] Cells were then stimulated by the addition of 25 μl of PGE2 or agonists prepared in assay buffer. In antagonist studies, cells were pre-incubated with compounds for 30 minutes prior to PGE2-mediated stimulation Plates were incubated for 15 min at 37° C., before termination of the reaction by the addition of 25 μl 1M HCl. The plate was then frozen at -20° C. overnight before determination of cAMP concentration. Stimulated cAMP levels were determined by radioligand displacement binding. In brief, plates were thawed rapidly in a waterbath, and the samples neutralised by the addition of 25 μl 1M NaOH. 30 μl was transferred to Millipore plates pre-coated with 0.5% Polyethylenimine (PEI). Samples were diluted by addition of 90 μl cAMP determination buffer (50 mM Tris, 5 mM EDTA, pH 7.0). […] 15 μl of 2 nM (final concentration) [^3H] cAMP, and 15 μl of 3'5'-cAMP protein kinase (8 μg/well final concentration) prepared in cAMP determination buffer containing 0.1% BSA, were added to each well. Plates were incubated on ice for 2 hours, before bound and free radiolabel were separated by vacuum filtration harvesting using the Millipore vacuum manifold, using ice cold water as the termination buffer. The sealing mat was removed from the Millipore plates, and the filters allowed to dry overnight. 50 μl Microscint 0 (Packard Bioscience) was added to each well, and the plate counted using the Micro-Beta Trilux topcount ^3H program. cAMP accumulation was determined from the standard curve, and values calculated in pmoles cAMP/well. Antagonists affinities (pA2 values) were determined assuming a slope of unity and the […]-Schild equation, where pA2=log [concentration ratio-1]-log[antagonist].

T1 sequence (P43116 whole entry): as above

Compound	Ki (human EP2 receptor)	Ki (human EP4 receptor)	Ki (human EP3 receptor)	EC50 [1]	activity (EP2 part) [1]
O=C(O)Cc1cccc(NC(=O)c2ccc(-c3ccccc3)o2)c1 [Compound 10, (3-{[5-(phenyl)-furan-2-carbonyl]-amino}-phenyl)-acetic acid]	< 1e-06 M	> 1e-05 M	> 1e-05 M	< 1 µM	EP2 agonist
COc1ccc(-c2ccc(C(=O)Nc3cccc(CC(=O)O)c3)o2)cc1 [Compound 12, (3-[(5-(4-Methoxy-phenyl)-furan-2-carbonyl)-amino]-phenyl)-acetic acid]	< 1e-06 M	> 1e-05 M	> 1e-05 M	< 1 µM	EP2 agonist
CN(C)c1ccc(-c2ccc(C(=O)Nc3cccc(CC(=O)O)c3)o2)cc1 [Compound 14, (3-[(5-(4-Dimethylamino-phenyl)-furan-2-carbonyl)-amino]-phenyl)-acetic acid]	< 1e-06 M	> 1e-05 M	> 1e-05 M	< 10 µM	EP2 agonist
COc1ccccc1-c1ccc(C(=O)Nc2cccc(CC(=O)O)c2)o1 [Compound 17, (3-{[5-(2-Methoxy-phenyl)-furan-2-carbonyl]-amino}-phenyl)-acetic acid]	< 1e-06 M	> 1e-05 M	> 1e-05 M	< 1 µM	EP2 agonist
COc1cccc(-c2ccc(C(=O)Nc3cccc(CC(=O)O)c3)o2)c1 [Compound 18, (3-{[5-(3-Methoxy-phenyl)-furan-2-carbonyl]-amino}-phenyl)-acetic acid]	< 1e-06 M	> 1e-05 M	> 1e-05 M	< 1 µM	EP2 agonist
CC(=O)c1cccc(-c2ccc(C(=O)Nc3cccc(CC(=O)O)c3)o2)c1 [Compound 19, (3-{[5-(3-Acetyl-phenyl)-furan-2-carbonyl]-amino}-phenyl)-acetic acid]	< 1e-06 M	> 1e-05 M	> 1e-05 M	< 10 µM	EP2 agonist
CC(=O)c1ccc(-c2ccc(C(=O)Nc3cccc(CC(=O)O)c3)o2)cc1 [Compound 20, (3-{[5-(4-Acetyl-phenyl)-furan-2-carbonyl]-amino}-phenyl)-acetic acid]	< 1e-06 M	> 1e-05 M	> 1e-05 M	< 10 µM	EP2 agonist
Cc1cccc(-c2ccc(C(=O)Nc3cccc(CC(=O)O)c3)o2)c1 [Compound 21, (3-{[5-(3-Methyl-phenyl)-furan-2-carbonyl]-amino}-phenyl)-acetic acid]	< 1e-06 M	> 1e-05 M	> 1e-05 M	< 1 µM	EP2 agonist
O=C(O)Cc1cccc(NC(=O)c2ccc(-c3ccc(Cl)c(Cl)c3)o2)c1 [Compound 27, (3-{[5-(3,4-Dichloro-phenyl)-furan-2-carbonyl]-amino}-phenyl)-acetic acid]	< 1e-07 M	> 1e-05 M	> 1e-05 M	< 0.1 µM	EP2 agonist
O=C(O)Cc1cccc(NC(=O)c2ccc(-c3ccccc3Cl)o2)c1 [Compound 30, (3-{[5-(2-Chloro-phenyl)-furan-2-carbonyl]-amino}-phenyl)-acetic acid]	< 1e-05 M	> 1e-05 M	> 1e-05 M	< 1 µM	EP2 Agonist
O=C(O)Cc1cccc(NC(=O)c2ccc(-c3cccc4ccccc34)o2)c1 [Compound 31, {3-[(5-Naphthalen-1-yl-furan-2-carbonyl)-amino]-phenyl}-acetic acid]	< 1e-06 M	< 1e-06 M	> 1e-05 M	< 1 µM	EP2 agonist
CC(C)c1cccc(-c2ccc(C(=O)Nc3cccc(CC(=O)O)c3)o2)c1 [Compound 34, (3-{[5-(3-Isopropyl-phenyl)-furan-2-carbonyl]-amino}-phenyl)-acetic acid]	< 1e-06 M	< 1e-06 M	> 1e-05 M	< 1 µM	EP2 agonist
O=C(O)Cc1cccc(NC(=O)c2ccc(-c3ccc4c(c3)OCO4)o2)c1 [Compound 36, {3-[(5-Benzo[1,3]dioxol-5-yl-furan-2-carbonyl)-amino]-phenyl}-acetic acid]	< 1e-06 M	> 1e-05 M	> 1e-05 M	< 0.1 µM	EP2 agonist
O=C(O)Cc1cccc(NC(=O)c2ccc(-c3cccc(Cl)c3Cl)o2)c1 [Compound 37, (3-{[5-(2,3-Dichloro-phenyl)-furan-2-carbonyl]-amino}-phenyl)-acetic acid]	< 1e-06 M	> 1e-05 M	> 1e-05 M	< 1 µM	EP2 agonist
O=C(O)Cc1cccc(NC(=O)c2ccc(-c3cccc(Cl)c3)o2)c1 [Compound 39, (3-{[5-(3-Chloro-phenyl)-furan-2-carbonyl]-amino}-phenyl)-acetic acid]	< 1e-07 M	> 1e-05 M	> 1e-05 M	< 0.1 µM	EP2 agonist
O=C(O)Cc1cccc(NC(=O)c2ccc(-c3ccc(Cl)cc3)o2)c1 [Compound 40, (3-{[5-(4-Chloro-phenyl)-furan-2-carbonyl]-amino}-phenyl)-acetic acid]	< 1e-06 M	> 1e-05 M	> 1e-05 M	< 0.1 µM	EP2 agonist
O=C(O)/C=C/c1cccc(SCc2csc(-c3ccccc3)n2)c1 [Compound 122, 3-[3-(2-Phenyl-thiazol-4-ylmethylsulfanyl)-phenyl]-acrylic acid]	< 1e-07 M	< 1e-06 M	> 1e-05 M		
O=C(O)/C=C/c1cccc(NC(=O)c2ccc(C34CC5CC(CC(C5)C3)C4)o2)c1 [Compound 123, 3-{3-[(5-Adamantan-1-yl-furan-2-carbonyl)-amino]-phenyl}-acrylic acid]	< 1e-06 M	> 1e-05 M	> 1e-05 M		
O=C(Nc1cccc(OCc2nnn[nH]2)c1)c1cccc(-c2ccccc2)n1 [Compound 174, 6-Phenyl-pyridine-2-carboxylic acid [3-(1H-tetrazol-5-ylmethoxy)-phenyl]-amide]	< 1e-07 M	< 1e-06 M	> 1e-05 M		
O=C(Nc1cccc(/C=C/c2nnn[nH]2)c1)c1cccc(-c2ccccc2)n1 [Compound 175, 6-Phenyl-pyridine-2-carboxylic acid {3-[2-(1H-tetrazol-5-yl)-vinyl]phenyl}-amide]	< 1e-07 M	< 1e-07 M	> 1e-05 M		
O=C(Nc1cccc(/C=C/c2nnn[nH]2)c1)c1cc(-c2ccccc2)ccc1F [Compound 176, 4-Fluoro-biphenyl-3-carboxylic acid {3-[2-(1H-tetrazol-5-yl)-vinyl]phenyl}-amide]	< 1e-07 M	> 1e-05 M	> 1e-05 M		

— patent US7326732B2, “EP2 receptor agonists” (Pharmagene Laboratories Limited, priority 2004, dated 2008)
